US11096985B2, “Antimicrobial peptides, their variants and uses” (priority 2015, dated 2021)
Where a SMILES comes first, the peptide text is derived from it. [ ]: non-standard residue; d: D form.

Columns and labels:
[1] = system: clinical strains of C. quillermondiae; assay: MIC, clinical yeast strains, C. quillermondiae; assay type: cell-based; conditions: C. quillermondiae clinical yeast strain 1
Summary of the method: (§1)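 MH broth; 5.0×10^5 cfu/ml; peptides 0.125–128 μg/ml; 37° C., 20–24 h; visual no-growth endpoint. Fungal MICs in potato dextrose broth.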

[2] = system: clinical strains of Candida albicans; assay: MIC, clinical yeast strains, Candida albicans; assay type: cell-based; design: unit: μg/ml
Summary of the method: as §1

[3] = system: clinical strains of C. parapsilosis; assay: MIC, clinical yeast strains, C. parapsilosis; assay type: cell-based, Candida parapsilosis; design: unit: μg/ml
Summary of the method: as §1

[4] = system: clinical strains of Pseudomonas aeruginosa; assay: MIC, clinical strains of P. aeruginosa; assay type: cell-based; design: unit: μg/ml; conditions: microdilution, Muller Hinton broth-cation adjusted, 0.02% BSA, 0.2% acetic acid
Summary of the method: as §1

[5] = system: clinical strains of Klebsiella pneumoniae; assay: MIC, clinical strains of K. pneumoniae; assay type: cell-based; design: unit: μg/ml; conditions: microdilution, Muller Hinton broth-cation adjusted, 0.02% BSA, 0.2% acetic acid
Summary of the method: as §1

[6] = system: clinical strains of Staphylococcus aureus; assay: MIC, clinical strains of S. aureus; assay type: cell-based; design: unit: μg/ml; conditions: microdilution, Muller Hinton broth-cation adjusted, 0.02% BSA, 0.2% acetic acid
Summary of the method: as §1

[7] = system: clinical strains of Escherichia coli; assay: MIC, clinical strains of E. coli; assay type: cell-based; design: unit: μg/ml; conditions: microdilution, Muller Hinton broth-cation adjusted, 0.02% BSA, 0.2% acetic acid
Summary of the method: as §1

[8] = system: clinical strains of Streptococcus pneumoniae; assay: MIC, clinical strains of Streptococcus pneumoniae; assay type: cell-based; design: unit: µg/mL; conditions: microdilution, Muller Hinton broth-cation adjusted, 0.02% BSA, 0.2% acetic acid
Summary of the method: as §1

[9] = system: clinical strains of C. glabrata; assay: MIC, clinical yeast strains, C. glabrata; assay type: cell-based, Candida glabrata; design: unit: μg/ml
Summary of the method: as §1

[10] = system: clinical strains of Enterobacter cloacae; assay: MIC, clinical strains of Enterobacter cloacae; assay type: cell-based; design: unit: μg/ml; conditions: microdilution, Muller Hinton broth-cation adjusted, 0.02% BSA, 0.2% acetic acid
Summary of the method: as §1

[11] = system: clinical strains of Proteus mirabilis; assay: MIC, clinical strains of Proteus mirabilis; assay type: cell-based; design: unit: µg/mL; conditions: microdilution, Muller Hinton broth-cation adjusted, 0.02% BSA, 0.2% acetic acid
Summary of the method: as §1

[12] = system: clinical strains of Serratia marcescens; assay: MIC, clinical strains of Serratia marcescens; assay type: cell-based; design: unit: µg/mL; conditions: microdilution, Muller Hinton broth-cation adjusted, 0.02% BSA, 0.2% acetic acid
Summary of the method: as §1

CC(C)C[C@@H](NC(=O)[C@@H](CCCCN)NC(=O)[C@@H](CCCCN)NC(=O)[C@@H](Cc1ccccc1)NC(=O)[C@@H](CC(C)C)NC(=O)[C@@H](Cc1c[nH]c2ccccc12)NC(=O)[C@@H](CCCNC(=N)N)NC(=O)[C@@H](Cc1c[nH]c2ccccc12)NC(=O)[C@@H](CCCCN)NC(=O)[C@@H](CCCNC(=N)N)NC(=O)[C@H](N)CCCCN)C(=O)O [Chain310D] (H-[dK][dR][dK][dW][dR][dW][dL][dF][dK][dK][dL]-OH)
Minimum inhibitory concentration [1]: 8
Minimum inhibitory concentration ([2]; Candida albicans clinical yeast strain 1): 16
Minimum inhibitory concentration ([2]; Candida albicans clinical yeast strain 2): 16
Minimum inhibitory concentration ([2]; Candida albicans clinical yeast strain 3): 16
Minimum inhibitory concentration ([2]; Candida albicans clinical yeast strain 4): 16
Minimum inhibitory concentration ([2]; Candida albicans clinical yeast strain 5): 16
Minimum inhibitory concentration ([3]; C. parapsilosis clinical yeast strain 1): 64
Minimum inhibitory concentration ([3]; C. parapsilosis clinical yeast strain 2): 64
Minimum inhibitory concentration ([3]; C. parapsilosis clinical yeast strain 3): 64
Minimum inhibitory concentration ([3]; C. parapsilosis clinical yeast strain 4): 16
Minimum inhibitory concentration ([4]; Pseudomonas aeruginosa clinical strain 1): 8
Minimum inhibitory concentration ([4]; Pseudomonas aeruginosa clinical strain 2): 16
Minimum inhibitory concentration ([4]; Pseudomonas aeruginosa clinical strain 3): 16
Minimum inhibitory concentration ([4]; Pseudomonas aeruginosa clinical strain 4): 8
Minimum inhibitory concentration ([4]; Pseudomonas aeruginosa clinical strain 5): 4
Minimum inhibitory concentration ([5]; Klebsiella pneumoniae clinical strain 1): 64
Minimum inhibitory concentration ([5]; Klebsiella pneumoniae clinical strain 2): 64
Minimum inhibitory concentration ([5]; Klebsiella pneumoniae clinical strain 3): 128
Minimum inhibitory concentration ([5]; Klebsiella pneumoniae clinical strain 4): 64
Minimum inhibitory concentration ([5]; Klebsiella pneumoniae clinical strain 5): 32
Minimum inhibitory concentration ([6]; Staphylococcus aureus clinical strain 1): 8
Minimum inhibitory concentration ([6]; Staphylococcus aureus clinical strain 2): 16
Minimum inhibitory concentration ([6]; Staphylococcus aureus clinical strain 3): 8
Minimum inhibitory concentration ([6]; Staphylococcus aureus clinical strain 4): 8
Minimum inhibitory concentration ([6]; Staphylococcus aureus clinical strain 5): 4
Minimum inhibitory concentration ([7]; Escherichia coli clinical strain 1): 4
Minimum inhibitory concentration ([7]; Escherichia coli clinical strain 2): 32
Minimum inhibitory concentration ([7]; Escherichia coli clinical strain 3): 16
Minimum inhibitory concentration ([7]; Escherichia coli clinical strain 4): 16
Minimum inhibitory concentration ([7]; Escherichia coli clinical strain 5): 16
Minimum inhibitory concentration ([8]; Streptococcus pneumoniae clinical strain 1): 128
Minimum inhibitory concentration ([8]; Streptococcus pneumoniae clinical strain 2): 128
Minimum inhibitory concentration ([8]; Streptococcus pneumoniae clinical strain 3): 128
Minimum inhibitory concentration ([8]; Streptococcus pneumoniae clinical strain 4): 128
Minimum inhibitory concentration ([8]; Streptococcus pneumoniae clinical strain 5): 64
Minimum inhibitory concentration ([9]; C. glabrata clinical yeast strain 1): 16
Minimum inhibitory concentration ([9]; C. glabrata clinical yeast strain 2): 16
Minimum inhibitory concentration ([9]; C. glabrata clinical yeast strain 3): 128
Minimum inhibitory concentration ([9]; C. glabrata clinical yeast strain 4): 128
Minimum inhibitory concentration ([10]; Enterobacter cloacae clinical strain 1): 128
Minimum inhibitory concentration ([10]; Enterobacter cloacae clinical strain 2): 64
Minimum inhibitory concentration ([10]; Enterobacter cloacae clinical strain 3): 16
Minimum inhibitory concentration ([10]; Enterobacter cloacae clinical strain 4): 8
Minimum inhibitory concentration ([10]; Enterobacter cloacae clinical strain 5): 16
Minimum inhibitory concentration ([11]; Proteus mirabilis clinical strain 1): >128
Minimum inhibitory concentration ([11]; Proteus mirabilis clinical strain 2): >128
Minimum inhibitory concentration ([11]; Proteus mirabilis clinical strain 3): >128
Minimum inhibitory concentration ([11]; Proteus mirabilis clinical strain 4): >128
Minimum inhibitory concentration ([11]; Proteus mirabilis clinical strain 5): >128
Minimum inhibitory concentration ([12]; Serratia marcescens clinical strain 1): >128
Minimum inhibitory concentration ([12]; Serratia marcescens clinical strain 2): >128
Minimum inhibitory concentration ([12]; Serratia marcescens clinical strain 3): >128
Minimum inhibitory concentration ([12]; Serratia marcescens clinical strain 4): >128
Minimum inhibitory concentration ([12]; Serratia marcescens clinical strain 5): >128
